# Measurements taken from patent publication US8802597B2, “Herbicidal pyrimidines” (E I du Pont de Nemours and Company, priority 2003, dated 2014).
# Experiments:
# Assay in all cases: Test C pre/postemergence
# Assay type in all cases: in vivo
# Conditions in all cases: Preemergence
# [1] = system: woolly cupgrass (Eriochloa villosa)
# Summary of the method: (§1)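 Greenhouse pot test: seeds treated preemergence, or plants at 2–18 cm (1- to 4-leaf stage) treated postemergence, with compound in non-phytotoxic solvent plus surfactant. Visual rating versus untreated controls after 12–14 days, scale 0 (no effect) to 100 (complete control); dash means not tested.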
# [2] = system: goosegrass (Eleusine indica)
# Summary of the method: as §1
# [3] = system: velvetleaf (Abutilon theophrasti)
# Summary of the method: as §1
# [4] = system: giant foxtail (Setaria faberii)
# Summary of the method: as §1
# [5] = system: yellow nutsedge (Cyperus esculentus)
# Summary of the method: as §1
# [6] = system: bermudagrass (Cynodon dactylon)
# Summary of the method: as §1
# [7] = system: Surinam grass (Brachiaria decumbens)
# Summary of the method: as §1
# soybean (Glycine max) = system: soybean (Glycine max)
# Summary of the method: as §1
# [8] = system: eastern black nightshade (Solanum ptycanthum)
# Summary of the method: as §1
# [9] = system: lambsquarters (Chenopodium album)
# Summary of the method: as §1
# [10] = system: morningglory (Ipomoea coccinea)
# Summary of the method: as §1
# [11] = system: common ragweed (Ambrosia elatior)
# Summary of the method: as §1
# [12] = 62 g ai/ha, scale 0 to 100, 0 no effect, 100 complete control
smiles,measurement,setting,value
CCOC(=O)Cc1nc(C2CC2)nc(N=CN(C)C)c1Br [Compound 33],"Plant response rating, Cupgrass, Woolly",[1]; [12],0
same,"Plant response rating, Cupgrass, Woolly","[1]; 125 g ai/ha, scale 0 to 100",0
same,"Plant response rating, Cupgrass, Woolly","[1]; 250 g ai/ha, scale 0 to 100",0
same,"Plant response rating, Cupgrass, Woolly","[1]; 500 g ai/ha, scale 0 to 100",0
same,"Plant response rating, Goosegrass",[2]; [12],0
same,"Plant response rating, Goosegrass","[2]; 125 g ai/ha, scale 0 to 100",0
same,"Plant response rating, Goosegrass","[2]; 250 g ai/ha, scale 0 to 100",0
same,"Plant response rating, Goosegrass","[2]; 500 g ai/ha, scale 0 to 100",0
same,"Plant response rating, Velvetleaf",[3]; [12],0
same,"Plant response rating, Velvetleaf","[3]; 125 g ai/ha, scale 0 to 100",20
same,"Plant response rating, Velvetleaf","[3]; 250 g ai/ha, scale 0 to 100",60
same,"Plant response rating, Velvetleaf","[3]; 500 g ai/ha, scale 0 to 100",85
same,"Plant response rating, Foxtail, Giant",[4]; [12],0
same,"Plant response rating, Foxtail, Giant","[4]; 125 g ai/ha, scale 0 to 100",10
same,"Plant response rating, Foxtail, Giant","[4]; 250 g ai/ha, scale 0 to 100",50
same,"Plant response rating, Foxtail, Giant","[4]; 500 g ai/ha, scale 0 to 100",50
same,"Plant response rating, Nutsedge, Yellow",[5]; [12],0
same,"Plant response rating, Nutsedge, Yellow","[5]; 125 g ai/ha, scale 0 to 100",0
same,"Plant response rating, Nutsedge, Yellow","[5]; 250 g ai/ha, scale 0 to 100",0
same,"Plant response rating, Nutsedge, Yellow","[5]; 500 g ai/ha, scale 0 to 100",0
same,"Plant response rating, Bermudagrass",[6]; [12],0
same,"Plant response rating, Bermudagrass","[6]; 125 g ai/ha, scale 0 to 100",0
same,"Plant response rating, Bermudagrass","[6]; 250 g ai/ha, scale 0 to 100",0
same,"Plant response rating, Bermudagrass","[6]; 500 g ai/ha, scale 0 to 100",0
same,"Plant response rating, Surinam Grass",[7]; [12],0
same,"Plant response rating, Surinam Grass","[7]; 125 g ai/ha, scale 0 to 100",0
same,"Plant response rating, Surinam Grass","[7]; 250 g ai/ha, scale 0 to 100",0
same,"Plant response rating, Surinam Grass","[7]; 500 g ai/ha, scale 0 to 100",10
same,"Plant response rating, Soybean",soybean (Glycine max); [12],0
same,"Plant response rating, Soybean","soybean (Glycine max); 125 g ai/ha, scale 0 to 100",30
same,"Plant response rating, Soybean","soybean (Glycine max); 250 g ai/ha, scale 0 to 100",80
same,"Plant response rating, Soybean","soybean (Glycine max); 500 g ai/ha, scale 0 to 100",90
same,"Plant response rating, Nightshade",[8]; [12],0
same,"Plant response rating, Nightshade","[8]; 125 g ai/ha, scale 0 to 100",50
same,"Plant response rating, Nightshade","[8]; 250 g ai/ha, scale 0 to 100",95
same,"Plant response rating, Nightshade","[8]; 500 g ai/ha, scale 0 to 100",100
same,"Plant response rating, Lambsquarters","[9]; 250 g ai/ha, scale 0 to 100",85
same,"Plant response rating, Morningglory",[10]; [12],0
same,"Plant response rating, Morningglory","[10]; 125 g ai/ha, scale 0 to 100",85
same,"Plant response rating, Morningglory","[10]; 250 g ai/ha, scale 0 to 100",90
same,"Plant response rating, Morningglory","[10]; 500 g ai/ha, scale 0 to 100",95
same,"Plant response rating, Ragweed",[11]; [12],0
same,"Plant response rating, Ragweed","[11]; 125 g ai/ha, scale 0 to 100",20
same,"Plant response rating, Ragweed","[11]; 250 g ai/ha, scale 0 to 100",70
same,"Plant response rating, Ragweed","[11]; 500 g ai/ha, scale 0 to 100",90
CCOC(=O)c1nc(C2CC2)nc(N=CN(C)C)c1Br [Compound 40],"Plant response rating, Cupgrass, Woolly",[1]; [12],5
same,"Plant response rating, Cupgrass, Woolly","[1]; 125 g ai/ha, scale 0 to 100",5
same,"Plant response rating, Cupgrass, Woolly","[1]; 250 g ai/ha, scale 0 to 100",70
same,"Plant response rating, Cupgrass, Woolly","[1]; 500 g ai/ha, scale 0 to 100",95
same,"Plant response rating, Goosegrass",[2]; [12],0
same,"Plant response rating, Goosegrass","[2]; 125 g ai/ha, scale 0 to 100",0
same,"Plant response rating, Goosegrass","[2]; 250 g ai/ha, scale 0 to 100",5
same,"Plant response rating, Goosegrass","[2]; 500 g ai/ha, scale 0 to 100",40
same,"Plant response rating, Velvetleaf",[3]; [12],0
same,"Plant response rating, Velvetleaf","[3]; 125 g ai/ha, scale 0 to 100",70
same,"Plant response rating, Velvetleaf","[3]; 250 g ai/ha, scale 0 to 100",90
same,"Plant response rating, Velvetleaf","[3]; 500 g ai/ha, scale 0 to 100",100
same,"Plant response rating, Foxtail, Giant",[4]; [12],0
same,"Plant response rating, Foxtail, Giant","[4]; 125 g ai/ha, scale 0 to 100",0
same,"Plant response rating, Foxtail, Giant","[4]; 250 g ai/ha, scale 0 to 100",30
same,"Plant response rating, Foxtail, Giant","[4]; 500 g ai/ha, scale 0 to 100",35
same,"Plant response rating, Nutsedge, Yellow",[5]; [12],0
same,"Plant response rating, Nutsedge, Yellow","[5]; 125 g ai/ha, scale 0 to 100",0
same,"Plant response rating, Nutsedge, Yellow","[5]; 250 g ai/ha, scale 0 to 100",0
same,"Plant response rating, Nutsedge, Yellow","[5]; 500 g ai/ha, scale 0 to 100",0
same,"Plant response rating, Bermudagrass",[6]; [12],0
same,"Plant response rating, Bermudagrass","[6]; 125 g ai/ha, scale 0 to 100",0
same,"Plant response rating, Bermudagrass","[6]; 250 g ai/ha, scale 0 to 100",0
same,"Plant response rating, Bermudagrass","[6]; 500 g ai/ha, scale 0 to 100",70
same,"Plant response rating, Surinam Grass","[7]; 125 g ai/ha, scale 0 to 100",0
same,"Plant response rating, Surinam Grass","[7]; 250 g ai/ha, scale 0 to 100",10
same,"Plant response rating, Surinam Grass","[7]; 500 g ai/ha, scale 0 to 100",90
same,"Plant response rating, Soybean",soybean (Glycine max); [12],10
same,"Plant response rating, Soybean","soybean (Glycine max); 125 g ai/ha, scale 0 to 100",40
same,"Plant response rating, Soybean","soybean (Glycine max); 250 g ai/ha, scale 0 to 100",90
same,"Plant response rating, Soybean","soybean (Glycine max); 500 g ai/ha, scale 0 to 100",95
same,"Plant response rating, Nightshade",[8]; [12],100
same,"Plant response rating, Nightshade","[8]; 125 g ai/ha, scale 0 to 100",100
same,"Plant response rating, Nightshade","[8]; 250 g ai/ha, scale 0 to 100",100
same,"Plant response rating, Nightshade","[8]; 500 g ai/ha, scale 0 to 100",100
same,"Plant response rating, Lambsquarters",[9]; [12],100
same,"Plant response rating, Lambsquarters","[9]; 125 g ai/ha, scale 0 to 100",100
same,"Plant response rating, Lambsquarters","[9]; 250 g ai/ha, scale 0 to 100",100
same,"Plant response rating, Lambsquarters","[9]; 500 g ai/ha, scale 0 to 100",100
same,"Plant response rating, Morningglory","[10]; 125 g ai/ha, scale 0 to 100",90
same,"Plant response rating, Morningglory","[10]; 250 g ai/ha, scale 0 to 100",90
same,"Plant response rating, Morningglory","[10]; 500 g ai/ha, scale 0 to 100",100
same,"Plant response rating, Ragweed",[11]; [12],90
same,"Plant response rating, Ragweed","[11]; 125 g ai/ha, scale 0 to 100",90
same,"Plant response rating, Ragweed","[11]; 250 g ai/ha, scale 0 to 100",100
same,"Plant response rating, Ragweed","[11]; 500 g ai/ha, scale 0 to 100",100
